Experimental findings from patent publication US8617563B2, “Antichlamydial agents” (Duke University, priority 2011, dated 2013) are described below.

In experiment [1] the target is CPAF (Chlamydia trachomatis serovar D, UniProt O84866). Format: cell-based, C. trachomatis. More on the design: endogenous in cells; host or cells: HeLa cells infected with C. trachomatis LGV-L2 434/Bu (the bacteria make the protein and secrete it into the host cytosol). As to conditions: L2-infected HeLa cells, peptide at 12 hpi, harvested 30 hpi; 2-10 μM for vimentin. As for the experimental part: Uninfected and HeLa cells pre-infected with L2 for 30 hrs were treated with inhibitory peptides and infected with EBs for 10 min Tarp translocation was indirectly visualized with an anti-phosphotyrosine antibody (A) and quantified by counting 50 separate cells (B). The stability of newly translocated Tarp was assessed by infecting cells as in (A) but with S^35-labeled EBs, followed by sequential immunoprecipitation of Tarp and MOMP and Phosphoimager analysis of precipitated material (C (I-IV)). […] IC50 values were determined by assessing CPAF cleavage of an Abz-tagged CPAF substrate (SEQ ID NO:9) by HPLC. Assays were performed the presence of increasing amount of inhibitors. […] Extracellular bacteria were determined. […] The number of internalized EBs was quantified per cell (H). […]
Rabbits were immunized with recombinant GST fusions to Ct005, IncC, IncD, Tarp, and hexa-histidine-tagged CPAF produced in E. coli BL-21 (available from Stratagene) and purified by affinity chromatography. […] To assess CPAF cleavage of membrane proteins and EB proteins, purified membranes and soluble EB protein lysate were incubated with 6× his-CPAF at 37° C., and resulting product analyzed by immunoblot. […]
To establish if CPAF was inhibited by SEQ ID NO:7 during infection, vimentin cleavage was assessed in C. trachomatis LGV-L2 434-infected HeLa cells after treatment with a range of concentrations (2-10 μM).

Experiment [2] relates to HeLa cells pre-infected with L2. Nature of the experiment: Secondary EB infection of pre-infected HeLa cells (Tarp translocation, stability, EB entry). The format is cell-based, C. trachomatis. On the procedure: FIG. 8 depicts (A-C(I-IV)) Tarp translocated by EBs is a target of CPAF-mediated degradation. Uninfected and HeLa cells pre-infected with L2 for 30 hrs were treated with inhibitory peptides and infected with EBs for 10 min Tarp translocation was indirectly visualized with an anti-phosphotyrosine antibody (A) and quantified by counting 50 separate cells (B). The stability of newly translocated Tarp was assessed by infecting cells as in (A) but with S^35-labeled EBs, followed by sequential immunoprecipitation of Tarp and MOMP and Phosphoimager analysis of precipitated material (C (I-IV)). Tarp is degraded in pre-infected HeLa cells in a CPAF-dependent manner. (D) Effective inhibition of CPAF activity by inhibitory peptide. IC50 values were determined by assessing CPAF cleavage of an Abz-tagged CPAF substrate (SEQ ID NO:9) by HPLC. Assays were performed the presence of increasing amount of inhibitors. […] CPAF cleavage of GST-chlamydial substrates was performed as in FIG. 4B but in the presence of SEQ ID NO:7 and SEQ ID NO:11 peptides (E). For in vivo inhibition effects on Chlamydia (L2), infected HeLa cells were treated with peptides at 12 hpi, and harvested at 30 hpi (F). […] (G and H) CPAF restricts EB entry into preinfected cells. Cells were infected as in (A), except that the secondary infections (30 min) were performed with fluorescently labeled EBs and infected cells were not permeabilized. […] Extracellular bacteria were determined. […] The number of internalized EBs was quantified per cell (H). […]
Next, HeLa cells or inclusion-containing HeLa cells were infected with ^35S-radiolabeled EBs, followed by immunoprecipitation of Tarp at various times after infection to determine the stability of translocated Tarp under these conditions. […] Tarp and MOMP were immunoprecipitated using anti-Tarp and anti-MOMP protein A sepharose beads (available from GE Healthcare), detected in a Typhoon9410 Variable Image Phosphor Imager (available from Amersham Biosciences), and quantified using ImageQuant 5.1TL software (available from GE Healthcare). […]

“Also recorded” adds a separate entry of the source. Where no end group is shown, it is not given here.

Sequence of CPAF (O84866 276-601): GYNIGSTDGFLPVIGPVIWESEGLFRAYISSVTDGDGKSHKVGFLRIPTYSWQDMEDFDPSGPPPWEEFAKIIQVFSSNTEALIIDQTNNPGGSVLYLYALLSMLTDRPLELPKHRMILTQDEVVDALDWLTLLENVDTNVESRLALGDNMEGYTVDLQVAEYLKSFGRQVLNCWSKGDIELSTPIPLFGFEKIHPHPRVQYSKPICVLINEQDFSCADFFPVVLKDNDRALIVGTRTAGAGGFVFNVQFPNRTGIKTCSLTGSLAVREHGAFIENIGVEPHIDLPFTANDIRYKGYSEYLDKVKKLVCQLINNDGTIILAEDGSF
Sequence of CPAF (O84866 24-234): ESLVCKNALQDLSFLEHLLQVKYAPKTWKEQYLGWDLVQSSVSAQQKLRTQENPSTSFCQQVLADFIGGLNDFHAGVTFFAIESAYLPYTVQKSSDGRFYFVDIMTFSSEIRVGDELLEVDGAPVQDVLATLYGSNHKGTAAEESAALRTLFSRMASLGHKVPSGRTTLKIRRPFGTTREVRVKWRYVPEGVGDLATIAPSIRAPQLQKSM

On to “SLFYSPMVPHFWAELRNHYATSGLKRRRRRRRRR-NH2 [SEQ ID NO:7]”, for which, in experiment [1], the “Inhibition of CPAF-mediated cleavage of vimentin and Puma in infected cells” value is “markedly inhibited; also recorded: loss of vimentin processing; also recorded: Vimentin and Puma cleavage was inhibited”. Moreover, the “Accumulation of Tyr-phosphorylated proteins at EB attachment sites” value in experiment [2] (pre-infected HeLa cells (30 h), 12 μM peptide) is listed as “restored the accumulation”. Besides, the “Degradation of Tarp in pulse-chase experiments” value in experiment [2] (pre-infected HeLa cells, 35S-labeled EBs, 12 μM peptide) was “blocked the degradation of Tarp”. Further, the “EB entry into preinfected cells” value in experiment [2] (secondary infection 30 min, labeled EBs) is recorded as “increased EB entry”.
